Measured values taken from patent US12139508B2, “Steroid derivative regulators, method for preparing the same, and uses thereof” (JIANGSU HANSOH PHARMACEUTICAL GROUP CO., LTD., priority 2018, dated 2024).
Where two headings read alike, the source gives them in different places.

Experiments:
[1] = Pharmacokinetic assay in Balb/c mice (plasma and brain tissue); type: in vivo; settings: mouse, po, 5 mg/kg p.o., male Balb/c mice; for AUC(0-t): read-out: Area under curve AUC0-t; for AUC(0-inf): read-out: Area under curve AUC0-∞; for half-life: read-out: Half-life t1/2 (converted); for MRT: read-out: Mean residence time MRT; for Tmax: read-out: Peak time tmax; for Cmax: read-out: Plasma concentration Cmax
Method in brief: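 Compound levels in plasma and brain were measured by LC/MS/MS with an internal standard after protein precipitation with acetonitrile. Samples came from overnight-fasted male Balb/c mice given 5 mg/kg p.o., with cardiac blood drawn at 0–24 h. Pharmacokinetic parameters were then calculated.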

[2] = tested on: PTZ-induced epilepsy model in CD-1 mice; assay: In vivo pharmacodynamic test in the PTZ-induced epilepsy model in mice; settings: dose 3 mpk p.o., PTZ 120 mg/kg s.c., 30 min observation
Method: The PTZ-induced epilepsy model in CD-1 mice was established, and the antiepileptic effect of the compounds of Example 3, Example 60, Example 61 and Example 74 was evaluated using this model.
50 male CD-1 mice were purchased from Beijing Vital River Laboratory Animal Technology Co. Ltd. The test animals were adapted at the animal room in the third building of Shanghai ChemPartner Co., Ltd for 7 days before the test. The average body weight of the animals on the test day was 32.2±0.2 grams. Feeding environment: 5 animals/cage, room temperature 23±2° C., 12/12 hours of light and dark cycle, free acess to food and water.
4.2.1 Test Equipments • 1 ml sterile disposable syringe with needle (purchased from Zhejiang Kangdelai Medical Devices Co., Ltd.) • Pipette: Eppendorf Research Plus (100-1000 L) • Vortex mixer: Kylin-Bell Vortex 5 • Ultrasonic instrument: JL-360 ultrasonic cleaner • Balance: METTLER TOLEDO™ XS204 precision balance (note: METTLER TOLEDO™ is a kind of balance used in labs and industry) • Balance: METTLER TOLEDO™ XS6002S electronic balance (note: METTLER TOLEDO™ is a kind of balance used in labs and industry) • Plexiglass box: 25 cm length*15 cm width*15 cm height with one opaque side wall, custom made by Suzhou Fengshi Laboratory Animal Equipment Co., Ltd • 3-channel timer: Oregon/Model NO.WB-388. 4.2.2 Test Animal Grouping • 1) Vehicle/PTZ: 0.5% CMC-Na+1% Tween-80 (10 ml/kg, p.o.), administered 0.5 hr before the PTZ administration; PTZ ([…], s.c.), administered before the test; • 2) 3 mg/kg of the compounds of Examples/PTZ: the compounds of Example 3, Example 60, Example 61 and Example 74 (3 mg/kg, 10 ml/kg, p.o.), administered 0.5 hr before the PTZ administration; PTZ ([…], s.c.), administered before the test. 4.3 Experimental Procedures 4.3.1 Solvent Formulation 1) 0.5% CMC-Na+1% Tween-80 (Administration Volume: 10 mL/Kg):
4.4 Adaptation to the Environment
The mice were randomly grouped, marked and weighed; 10 mice per group. The test compound was administered orally at an administration volume of 10 mL/kg 30-60 minutes before the PTZ administration.
PTZ (120 mg/kg) was administrated subcutaneously before the test observation, and this time point was recorded as the observation start point; after the administration of PTZ, the animal was immediately placed in the observation box and observed for 30 minutes, and the followings were recorded: a) the incubation period of the first clonic seizure, b) the incubation period of the first generalized tonic seizure, c) the number of clonic seizures, d) the number of generalized tonic seizures, e) the time when the animal died.
All measurement data were expressed as Mean±SEM, and analysed with Prism 6.0 statistical software.

Structure (SMILES)	AUC(0-t) ([1]; brain tissue) [µg·h/mL]	AUC(0-inf) ([1]; brain tissue) [µg·h/mL]	half-life ([1]; brain tissue) [h]	MRT ([1]; brain tissue) [h]	Tmax ([1]; brain tissue) [h]	Cmax ([1]; brain tissue) [µg/mL]	AUC(0-t) ([1]; plasma) [µg·h/mL]	AUC(0-inf) ([1]; plasma) [µg·h/mL]	half-life ([1]; plasma) [h]	MRT ([1]; plasma) [h]	Tmax ([1]; plasma) [h]	Cmax ([1]; plasma) [µg/mL]	Incubation period of the clonic seizure, Mean ± SEM [2] [s]	Incubation period of the generalized tonic seizure, Mean [2] [s]	Mortality rate [2] [%]	Number of clonic seizures, Mean [2]	Number of generalized tonic seizures, Mean [2]	Time when the animal died, Mean [2] [s]
C[C@@]1(O)CC[C@H]2[C@H](CC[C@@H]3[C@@H]2CC[C@@]2(C)[C@H]3[C@@H]3C[C@@H]3[C@@H]2C(=O)Cn2ccc(C#N)n2)C1 [Example 3, 1-(2-((2R,4aS,4bR,6aS,7S,7aS,8aR,8bR,8cR,10aR)-2-hydroxy-2,6a-dimethyloctadecahydrocyclopropa[4,5]cyclopenta[1,2-a]phenanthren-7-yl)-2-oxoethyl)-1H-pyrazole-3-carbonitrile]	0.719	0.722	0.5	1.1	0.5	0.69	0.57	0.574	0.5	1.01	0.5	0.673	902.9 ± 200.8	1736.0 ± 63.2	10	1.3 ± 0.3	0.1 ± 0.1	1739.8 ± 60.2
C[C@@H]1C[C@H](C(=O)Cn2ccc(C#N)n2)[C@@]2(C)CC[C@H]3[C@@H](CC[C@@H]4C[C@](C)(O)CC[C@@H]43)[C@H]12 [Example 60, 1-(2-((3R,5R,8R,9R,10S,13S,14S,15R,17S)-3-Hydroxy-3,13,15-trimethylhexadecahydro-1H-cyclopenta[a]phenanthren-17-yl)-2-oxoethyl)-1H-pyrazole-3-carbonitrile]	2.4	2.5	2.37	2.35	1	0.998	1.7	1.77	1.64	1.43	0.5	0.72	1308.1 ± 170.1	1800.0 ± 0.0	0	0.5 ± 0.2	0.0 ± 0.0	1800.0 ± 0.0
C[C@@]1(O)CC[C@H]2[C@H](CC[C@@H]3[C@@H]2CC[C@@]2(C)[C@H]3[C@@H]3C[C@@H]3[C@@H]2C(=O)Cn2cc(C(F)(F)F)cn2)C1 [Example 5, 1-((2R,4aS,4bR,6aS,7S,7aS,8aR,8bR,8cR,10aR)-2-Hydroxy-2,6a-dimethyloctadecahydrocyclopropa[4,5]cyclopenta[1,2-a]phenanthren-7-yl)-2-(4-(trifluoromethyl)-1H-pyrazol-1-yl)ethan-1-one]	2.3	3.07	4.72	5.53	0.5	1.41	1.24	1.25	5.12	4.8	0.5	0.461						
C[C@@]1(O)CC[C@H]2[C@H](CC[C@@H]3[C@@H]2CC[C@@]2(C)[C@H]3[C@@H]3C[C@@H]3[C@@H]2C(=O)Cn2cc(C#N)cn2)C1 [Example 2, 1-(2-((2R,4aS,4bR,6aS,7S,7aS,8aR,8bR,8cR,10aR)-2-hydroxy-2,6a-dimethyloctadecahydrocyclopropa[4,5]cyclopenta[1,2-a]phenanthren-7-yl)-2-oxoethyl)-1H-pyrazole-4-carbonitrile]	0.84	0.913	2.84	2.39	0.5	0.637	1.36	1.37	0.54	1.21	0.5	1.1						
C[C@@]1(O)CC[C@H]2[C@H](CC[C@@H]3[C@@H]2CC[C@@]2(C)[C@H]3[C@H](C3CC3)C[C@@H]2C(=O)Cn2ncnn2)C1 [Example 146, 1-((3R,5R,8R,9R,10S,13S,14S,15S,17S)-15-Cyclopropyl-3-hydroxy-3,13-dimethylhexadecahydro-1H-cyclopenta[a]phenanthren-17-yl)-2-(2H-tetrazol-2-yl)ethan-1-one]	8.68	12.5	4.66	6.73	1	1.97	7.79	8	1.45	2.97	1	2.09						
C[C@@]1(O)CC[C@H]2[C@H](CC[C@@H]3[C@@H]2CC[C@@]2(C)[C@H]3[C@H](C3CC3)C[C@@H]2C(=O)Cn2ccnn2)C1 [Example 145, 1-((3R,5R,8R,9R,10S,13S,14S,15S,17S)-15-Cyclopropyl-3-hydroxy-3,13-dimethylhexadecahydro-1H-cyclopenta[a]phenanthren-17-yl)-2-(1H-1,2,3-triazol-1-yl)ethan-1-one]	4.82	5.27	2.09	3.4	1	1.48	13.4	13.4	1.75	3.47	1	2.99						
CC[C@@H]1C[C@H](C(=O)Cn2ccc(C#N)n2)[C@@]2(C)CC[C@H]3[C@@H](CC[C@@H]4C[C@](C)(O)CC[C@@H]43)[C@H]12 [Example 137, 1-(2-((3R,5R,8R,9R,10S,13S,14S,15R,17S)-15-Ethyl-3-hydroxy-3,13-dimethylhexadecahydro-1H-cyclopenta[a]phenanthren-17-yl)-2-oxoethyl)-1H-pyrazole-3-carbonitrile]	2.13	3.16	6.02	7.58	1	0.613	2.79	3.79	3.85	5.88	1	0.763						
C[C@@]1(O)CC[C@H]2[C@H](CC[C@@H]3[C@@H]2CC[C@]2(C)C(C(=O)Cn4cc(C#N)cn4)C[C@@H](C4CC4)[C@@H]32)C1 (stereo partly drawn) [Example 71, 1-(2-((3R,5R,8R,9R,10S,13S,14S,15S)-15-Cyclopropyl-3-hydroxy-3,13-dimethylhexadecahydro-1H-cyclopenta[a]phenanthren-17-yl)-2-oxoethyl)-1H-pyrazole-4-carbonitrile]	1.13	1.28	2	3.66	1	0.383	1.58	1.76	2.04	3.5	1	0.508						
C[C@@H]1C[C@H](C(=O)Cn2cc(C#N)cn2)[C@@]2(C)CC[C@H]3[C@@H](CC[C@@H]4C[C@](C)(O)CC[C@@H]43)[C@H]12 [Example 13, 1-(2-((3R,5R,8R,9R,10S,13S,14S,15R)-3-Hydroxy-3,13,15-trimethylhexadecahydro-1H-cyclopenta[a]phenanthren-17-yl)-2-oxoethyl)-1H-pyrazole-4-carbonitrile]	4.73	4.74	2.5	3.9	1	1.06	5.06	5.07	2.5	3.6	1	1.21						
